These results are taken from ChEMBL document CHEMBL4406824, “Phenolic N-monosubstituted carbamates: Antitubercular and toxicity evaluation of multi-targeting compounds” (Eur J Med Chem, 2019).

pIC50: −log10 of the molar value. ≈ marks a conversion by molar mass, not a printed value. Some results are limits rather than exact numbers.

For data set [1], the system named is Mycobacterium tuberculosis. The data set is described as follows: Antimycobacterial activity against XDR Mycobacterium tuberculosis Praha 131 after 21 days. The class given is functional. Conditions: Praha 131, 504 h.
For data set [2], the system named is Mycobacterium tuberculosis. The class given is functional. Conditions: H37Rv 331/88, 336 h.
In data set [3] the test system is Mycobacterium kansasii. The data set is described as follows: Antimycobacterial activity against Mycobacterium kansasii 235/80 after 7 days. The class given is functional. Conditions: 235/80, 168 h.
Data set [4] concerns Mycobacterium kansasii. Description: Potency index, ratio of p-aminosalicylic acid MIC to compound MIC for antimycobacterial activity against Mycobacterium kansasii 6509/96. The class given is functional.
Data set [5] concerns Mycobacterium tuberculosis H37Rv. The data set is described as follows: Inhibition of recombinant Mycobacterium tuberculosis H37Rv ICL1 expressed in Escherichia coli BL21 (DE3) cells at 10 uM using (+)-potassium Ds-threo-isocitrate as substrate by glyoxylate phenyl hydrazone formation assay relative to control.
The test system of data set [6] is Mycobacterium kansasii. Description: Antimycobacterial activity against Mycobacterium kansasii 235/80 after 21 days. The class given is functional. The note with it: 235/80, 504 h.
The test system of data set [7] is Mycobacterium tuberculosis. Description: Antimycobacterial activity against Mycobacterium tuberculosis H37Ra ITM-M006710 after 48 hr by resazurin dye based microdilution method. The class given is functional. Conditions: H37Ra ITM-M006710, 48 h. For orientation: Alamar Blue is a resazurin reagent that responds to reducing activity.
The test system of data set [8] is Mycobacterium kansasii. The data set is described as follows: Antimycobacterial activity against Mycobacterium kansasii 235/80 after 14 days. Format: functional. Conditions: 235/80, 336 h.
For data set [9], the system named is Mycobacterium kansasii. Description: Antimycobacterial activity against Mycobacterium kansasii 6509/96 after 14 days. The class given is functional. Conditions: 6509/96, 336 h.
The nature of another data set: in vitro. Conditions: human, HepG2 cells.
For data set [10], the system named is Mycobacterium tuberculosis. The class given is functional, H37Rv 331/88. Also noted: reference not given here.
Data set [11] relates to Mycobacterium avium. Description: Antimycobacterial activity against Mycobacterium avium 330/88 after 14 days. Format: functional. The note with it: 330/88, 336 h.
Data set [12] relates to Mycobacterium tuberculosis. Description: Antimycobacterial activity against XDR Mycobacterium tuberculosis Praha 131 after 14 days. The note with it: Praha 131, 336 h. Format: functional.
The test system of a further data set is Mycolicibacterium aurum. The data set is described as follows: Antimycobacterial activity against Mycobacterium aurum DSM 43999 after 72 hr by resazurin dye based microdilution method. Format: functional. The note with it: DSM 43999, 72 h.
Data set [13] deals with Mycobacterium kansasii. The data set is described as follows: Antimycobacterial activity against Mycobacterium kansasii 6509/96 after 21 days. Format: functional. The note with it: 6509/96, 504 h.
For data set [14], the system named is Mycobacterium avium. Description: Antimycobacterial activity against Mycobacterium avium 330/88 after 21 days. Format: functional. The note with it: 330/88, 504 h.
The test system of data set [15] is Mycobacterium kansasii. Description: Potency index, ratio of p-aminosalicylic acid MIC to compound MIC for antimycobacterial activity against Mycobacterium kansasii 235/80. Format: functional.
For data set [16], the system named is HepG2. Description: Cytotoxicity against human HepG2 cells assessed as reduction in cell viability after overnight incubation by MTT assay. The class given is cell-based. For orientation: Tetrazolium dyes change colour on reduction, which living cells bring about.
The test system of data set [17] is Mycolicibacterium smegmatis. The data set is described as follows: Antimycobacterial activity against Mycobacterium smegmatis DSM 43465 after 120 hr by resazurin dye based microdilution method. Format: functional. Conditions: DSM 43465, 120 h.
The subject of data set [18] is HepG2. Description: Cytostatic activity against human HepG2 cells preincubated for overnight in serum free medium followed by compound wash out and further incubated for 72 hrs in presence of serum by MTT assay. Format: ADME, cell-based.
Data set [19] relates to Mycobacterium tuberculosis. Format: functional. The note with it: H37Rv 331/88, 504 h.
For data set [20], the system named is Mycobacterium kansasii. Description: Antimycobacterial activity against Mycobacterium kansasii 6509/96 after 7 days. Format: functional. Conditions: 6509/96, 168 h.

Description for in vitro: Selectivity index, ratio of IC50 for human HepG2 cells to MIC for antimycobacterial activity against Mycobacterium tuberculosis H37Rv

As a reminder, the MIC is the smallest concentration in the dilution series that meets the test's criterion for growth inhibition. The term inhibition denotes the relative decrease from the control value, in per cent. Usually pIC50 stands for the negative decadic logarithm of the IC50, by convention in mol/L. Take `O=C(Nc1ccccc1)Oc1ccc(Cl)cc1C(=O)Nc1ccc(C(F)(F)F)cc1`: the minimal inhibitory concentration (MIC) is 1 µM (≈ 0.435 µg/mL) in data set [1]; ≤ 0.5 µM in data set [2]; 4 µM (≈ 1.74 µg/mL) against Mycobacterium kansasii [3]; 4 µM (≈ 1.74 µg/mL) with Mycobacterium kansasii [6]; ≤ 0.9 µM in data set [7]; 4 µM (≈ 1.74 µg/mL) in the data set on Mycobacterium kansasii [8]. Moreover, the minimal inhibitory concentration (MIC) against Mycobacterium kansasii [9] was 4 µM (≈ 1.74 µg/mL); against Mycobacterium avium [11] it was 8 µM (≈ 3.48 µg/mL); in data set [12] it was 1 µM (≈ 0.435 µg/mL); in the data set on Mycolicibacterium aurum it was ≤ 0.9 µM; in the data set on Mycobacterium kansasii [13], 4 µM (≈ 1.74 µg/mL); against Mycobacterium avium [14], 8 µM (≈ 3.48 µg/mL). Moreover, the MIC in data set [17] was ≤ 0.9 µM; in data set [19] it was 1 µM (≈ 0.435 µg/mL); against Mycobacterium kansasii [20], 2 µM (≈ 0.87 µg/mL). The Ratio with Mycobacterium kansasii [4] is recorded as >250; in [10], >125; with Mycobacterium kansasii [15], >250. Further, the inhibition in data set [5] stood at 13%. In addition, the selectivity ratio in the data set “in vitro” is 9.8 to 19.6. The pIC50 was 5.01 in the data set with HepG2 [16] and 5.61 in the data set with HepG2 [18].
On to `O=C(NCCc1ccccc1)Oc1ccc(Cl)cc1C(=O)Nc1ccc(Cl)cc1`, for which the MIC in [2] is 8 µM (≈ 3.43 µg/mL); against Mycobacterium kansasii [3], 8 µM (≈ 3.43 µg/mL); in the data set with Mycobacterium kansasii [6], 16 µM (≈ 6.87 µg/mL); in data set [7], 1.56 µg/mL; against Mycobacterium kansasii [8], 8 µM (≈ 3.43 µg/mL); against Mycobacterium kansasii [9], 8 µM (≈ 3.43 µg/mL). The MIC in the data set with Mycobacterium avium [11] came to 8 µM (≈ 3.43 µg/mL); in the data set with Mycolicibacterium aurum, 1.56 µg/mL; against Mycobacterium kansasii [13], 8 µM (≈ 3.43 µg/mL); against Mycobacterium avium [14] it was 8 µM (≈ 3.43 µg/mL); in data set [17], 1.56 µg/mL; in data set [19] it was 16 µM (≈ 6.87 µg/mL). Besides, the lowest concentration to inhibit growth in the data set on Mycobacterium kansasii [20] (MIC) was 4 µM (≈ 1.72 µg/mL). The Ratio in the data set on Mycobacterium kansasii [4] was >250; in data set [10] it was >125; with Mycobacterium kansasii [15] it was >250. Also, the inhibition in [5] amounted to 10%. Moreover, the selectivity ratio in “in vitro” amounted to 1.9. For the same compound, the pIC50 in the data set on HepG2 [16] is 4.82; in the data set on HepG2 [18] it was 5.29.
For the compound `O=C(NC12CC3CC(CC(C3)C1)C2)Oc1ccc(Cl)cc1C(=O)Nc1ccc(F)cc1`, the MIC in [2] turned out to be 4 µM (≈ 1.77 µg/mL); with Mycobacterium kansasii [3], 8 µM (≈ 3.54 µg/mL); against Mycobacterium kansasii [6], 16 µM (≈ 7.09 µg/mL); in data set [7], 2.24 µM; in the data set with Mycobacterium kansasii [8] it was 8 µM (≈ 3.54 µg/mL); in the data set on Mycobacterium kansasii [9] it was 8 µM (≈ 3.54 µg/mL). In addition, the MIC in the data set on Mycobacterium avium [11] turned out to be 32 µM (≈ 14.2 µg/mL); in the data set on Mycolicibacterium aurum, 1.98 µg/mL; with Mycobacterium kansasii [13] it was 16 µM (≈ 7.09 µg/mL); in the data set on Mycobacterium avium [14], 32 µM (≈ 14.2 µg/mL); in data set [17], 1.98 µg/mL; in data set [19] it was 4 µM (≈ 1.77 µg/mL). The MIC against Mycobacterium kansasii [20] amounted to 8 µM (≈ 3.54 µg/mL). Moreover, the results for the Ratio (in the data set on Mycobacterium kansasii [4]; in data set [10]; in the data set on Mycobacterium kansasii [15]) were >250, >125 and >250, respectively. Also, in [5], the inhibition came to 14%. The selectivity ratio in “in vitro” came out at 31.3. The pIC50 in the data set on HepG2 [16] and with HepG2 [18] was < 3.90 each time.
As for `O=C(Nc1ccccc1)Oc1ccc(Cl)cc1C(=O)Nc1ccc(F)cc1`, the MIC in [2] worked out at 4 µM (≈ 1.54 µg/mL); against Mycobacterium kansasii [3] it was 8 µM (≈ 3.08 µg/mL); in the data set on Mycobacterium kansasii [6], 32 µM (≈ 12.3 µg/mL); in data set [7] it was 3.12 µg/mL; against Mycobacterium kansasii [8], 16 µM (≈ 6.16 µg/mL); against Mycobacterium kansasii [9] it was 16 µM (≈ 6.16 µg/mL). The MIC is 32 µM (≈ 12.3 µg/mL) in the data set with Mycobacterium avium [11]; 1.98 µg/mL against Mycolicibacterium aurum; 16 µM (≈ 6.16 µg/mL) in the data set with Mycobacterium kansasii [13]; 32 µM (≈ 12.3 µg/mL) against Mycobacterium avium [14]; 1.98 µg/mL in [17]; 8 µM (≈ 3.08 µg/mL) in data set [19]. In addition, the minimal inhibitory concentration (MIC) in the data set on Mycobacterium kansasii [20] was 8 µM (≈ 3.08 µg/mL). Moreover, the Ratio was >250 in the data set on Mycobacterium kansasii [4], >125 in [10] and >250 with Mycobacterium kansasii [15]. Also, the inhibition in data set [5] worked out at 16%. In addition, the selectivity ratio in “in vitro” was > 2.5. Further, the pIC50 in the data set with HepG2 [16] is < 4.70; with HepG2 [18], 5.49.
`O=C(NCCc1ccccc1)Oc1ccc(Cl)cc1C(=O)Nc1ccc(C(F)(F)F)cc1`: the minimum inhibitory concentration (MIC) in data set [1] is 2 µM (≈ 0.926 µg/mL); in [2] it was ≤ 0.5 µM; against Mycobacterium kansasii [3] it was 4 µM (≈ 1.85 µg/mL); with Mycobacterium kansasii [6] it was 8 µM (≈ 3.7 µg/mL); in data set [7], 0.84 to 1.69 µM; against Mycobacterium kansasii [8], 4 µM (≈ 1.85 µg/mL). The MIC against Mycobacterium kansasii [9] is 4 µM (≈ 1.85 µg/mL); in the data set with Mycobacterium avium [11], 8 µM (≈ 3.7 µg/mL); in data set [12], 2 µM (≈ 0.926 µg/mL); in the data set with Mycolicibacterium aurum, ≤ 0.84 µM; against Mycobacterium kansasii [13] it was 4 µM (≈ 1.85 µg/mL); against Mycobacterium avium [14], 8 µM (≈ 3.7 µg/mL). In addition, the minimal inhibitory concentration (MIC) in data set [17] is ≤ 0.84 µM; in data set [19], 1 µM (≈ 0.463 µg/mL); in the data set with Mycobacterium kansasii [20], 2 µM (≈ 0.926 µg/mL). The figures for the Ratio (in the data set on Mycobacterium kansasii [4]; in data set [10]; with Mycobacterium kansasii [15]) were >250, >125 and >250, respectively. Moreover, in data set [5], the inhibition was found to be 11%. In addition, the selectivity ratio in “in vitro” is > 125. For the same compound, the results for the pIC50 in the data set on HepG2 [16] and in the data set on HepG2 [18] were < 3.90 and 6.00, respectively.
